In experiment [1] the test system is FRT cells. In words: Fluo-4 Ca2+ mobilization assay in parental (null) FRT cells. It is filed as cell-based, rat. Particulars: for direct Ca2+ mobilization in the absence of UTP (Fluo-4): acute addition, Eact 5 μM, FIG. 2B; for direct Ca2+ mobilization in the absence of UTP (Fluo-4) / potentiation of UTP-dependent Ca2+ increase (Fluo-4): compounds 10 μM; for potentiation of UTP-dependent Ca2+ increase (Fluo-4): FIG. 2A. On the procedure:
Experiments were performed using the microplate reader described for the HS-YFP assay. FRT and HEK293 cells were cultured until confluence in 96-well microplates (3603, Corning). Cells were washed 2 times with PBS (150 μl/wash) and then loaded for 1 h at 37° C. with 5 μM Fluo-4/AM (Thermo Fisher Scientific; catalog number: F23917) in PBS containing 10 mM glucose, 0.5 mM sulfinpyrazone, and 1% fetal bovine serum. […] Each well was assayed individually. Fluo-4 fluorescence (500 nm excitation, 535 nm emission) was detected every 200 ms for 16-40 s. Two seconds after the start of fluorescence recording, the reader automatically injected 165 μl of a modified PBS containing 136 mM KCl instead of NaCl. This solution also contained 10 mM glucose, 0.5 mM sulfinpyrazone, and UTP or SLIGR-NH2 (CAS #171436-38-7) at a final concentration that depended on the specific cell type. For UTP we used: 0.25 μM for FRT; 1 μM for HEKR2; 5 μM for HEK3XKO, HEKR1, and HEKR3. For SLIGR-NH2 we used: 10 μM for HEKR1; 4 μM for HEKR2. These concentrations were chosen to elicit ˜20% of maximal effect based on UTP and SLIGR-NH2 dose-response relationships. The lower agonist concentrations used for HEKR2 cells, compared to HEKR1 cells, are consistent with the higher affinity of ITPR2 for IP3 (16). The Fluo-4 fluorescence increase was quantified using a procedure compiled in Microsoft Excel after background subtraction and normalization for the initial value measured before UTP addition.
In a further experimental setting, experiments were performed using as above the FLUOstar Omega (BMG Labtech, Offenburg, Germany) microplate reader equipped with syringe pumps and optical excitation/emission filters optimized for yellow fluorescent protein (YFP) fluorescence (ET500/20× and ET535/30m, respectively; Chroma Technology Corporation). FRT and Chem-1 cells were cultured until confluence in 96-well microplates (cc3603, Corning). Cells were washed 2 times with PBS (150 μl/wash) and then loaded for 1 h at 37° C. with 5 μM Fluo-4/AM (Thermo Fisher Scientific; catalog number: F23917) in PBS containing 10 mM glucose, 0.5 mM sulfinpyrazone, and 1% fetal bovine serum. […] Each well was assayed individually. Fluo-4 fluorescence (500 nm excitation, 535 nm emission) was detected every 200 ms for 16-40 s. Two seconds after the start of fluorescence recording, the reader automatically injected 165 μl of a modified PBS containing 136 mM KCl instead of NaCl. This solution also contained, in addition to 10 mM glucose and 0.5 mM sulfinpyrazone, the following agonists: UTP (U6625, Merck) or CCK8s (23371, Cayman Chemical). The Fluo-4 fluorescence increase was quantified using a procedure compiled in Microsoft Excel after background subtraction and normalization for the initial value measured before UTP or CCK8s addition.
For orientation: Calcium flux is commonly read through the fluorescence of an indicator in the cells.

For experiment [2], the target named is T1, ITPR3 (Homo sapiens, UniProt Q14573).
T1 construct: host or cells: HEKR3 (HEK293)
The experiment in a line: Fluo-4 Ca2+ assay, UTP, HEK293 cells with selective expression of ITPR3 (HEKR3). It is filed as cell-based. Particulars: compounds 10 μM; UTP 5 μM; FIG. 2C. On the procedure:
HEK293 cells totally devoid of ITPR expression (HEK3XKO) or with selective expression of ITPR1 (HEKR1), ITPR2 (HEKR2), or ITPR3 (HEKR3), obtained by selective gene ablation, were purchased from Kerafast (catalog number: EURO30, EURO31, EURO32, EURO33) and cultured in a mixture of Dulbecco's Modified Eagle Medium (DMEM, high glucose version) and Ham's F12 (1:1) and supplemented with 10% fetal bovine serum, 2 mM L-glutamine, 100 U/ml penicillin and 100 μg/ml streptomycin.
(§1) Experiments were performed using the microplate reader described for the HS-YFP assay. FRT and HEK293 cells were cultured until confluence in 96-well microplates (3603, Corning). Cells were washed 2 times with PBS (150 μl/wash) and then loaded for 1 h at 37° C. with 5 μM Fluo-4/AM (Thermo Fisher Scientific; catalog number: F23917) in PBS containing 10 mM glucose, 0.5 mM sulfinpyrazone, and 1% fetal bovine serum. After loading, cells were washed 2 times with PBS-glucose-sulfinpyrazone (150 μl/wash) and incubated for 20 min at 37° C. with 60 μl of PBS plus 10 mM glucose and 0.5 mM sulfinpyrazone containing compounds of interest at 10 μM final concentration or vehicle. Each well was assayed individually. Fluo-4 fluorescence (500 nm excitation, 535 nm emission) was detected every 200 ms for 16-40 s. Two seconds after the start of fluorescence recording, the reader automatically injected 165 μl of a modified PBS containing 136 mM KCl instead of NaCl. This solution also contained 10 mM glucose, 0.5 mM sulfinpyrazone, and UTP or SLIGR-NH2 (CAS #171436-38-7) at a final concentration that depended on the specific cell type. For UTP we used: 0.25 μM for FRT; 1 μM for HEKR2; 5 μM for HEK3XKO, HEKR1, and HEKR3. For SLIGR-NH2 we used: 10 μM for HEKR1; 4 μM for HEKR2. These concentrations were chosen to elicit ˜20% of maximal effect based on UTP and SLIGR-NH2 dose-response relationships. […] The Fluo-4 fluorescence increase was quantified using a procedure compiled in Microsoft Excel after background subtraction and normalization for the initial value measured before UTP addition.

In experiment [3] the test system is protease-activated receptors. The experiment in a line: Fluo-4 Ca2+ assay, SLIGR-NH2 stimulus, HEKR1 cells. Particulars: SLIGR-NH2 10 μM; compounds 10 μM; FIG. 5C top. The experiment is classed as cell-based. As to the method:
Experiments were performed using the microplate reader described for the HS-YFP assay. FRT and HEK293 cells were cultured until confluence in 96-well microplates (3603, Corning). Cells were washed 2 times with PBS (150 μl/wash) and then loaded for 1 h at 37° C. with 5 μM Fluo-4/AM (Thermo Fisher Scientific; catalog number: F23917) in PBS containing 10 mM glucose, 0.5 mM sulfinpyrazone, and 1% fetal bovine serum. After loading, cells were washed 2 times with PBS-glucose-sulfinpyrazone (150 μl/wash) and incubated for 20 min at 37° C. with 60 μl of PBS plus 10 mM glucose and 0.5 mM sulfinpyrazone containing compounds of interest at 10 μM final concentration or vehicle. Each well was assayed individually. Fluo-4 fluorescence (500 nm excitation, 535 nm emission) was detected every 200 ms for 16-40 s. Two seconds after the start of fluorescence recording, the reader automatically injected 165 μl of a modified PBS containing 136 mM KCl instead of NaCl. This solution also contained 10 mM glucose, 0.5 mM sulfinpyrazone, and UTP or SLIGR-NH2 (CAS #171436-38-7) at a final concentration that depended on the specific cell type. For UTP we used: 0.25 μM for FRT; 1 μM for HEKR2; 5 μM for HEK3XKO, HEKR1, and HEKR3. For SLIGR-NH2 we used: 10 μM for HEKR1; 4 μM for HEKR2. These concentrations were chosen to elicit ˜20% of maximal effect based on UTP and SLIGR-NH2 dose-response relationships. The lower agonist concentrations used for HEKR2 cells, compared to HEKR1 cells, are consistent with the higher affinity of ITPR2 for IP3 (16). The Fluo-4 fluorescence increase was quantified using a procedure compiled in Microsoft Excel after background subtraction and normalization for the initial value measured before UTP addition.

In experiment [4] the target is T2, R269W ITPR1 (Homo sapiens, UniProt Q14643, R269W).
T2 construct: expressed in transfected cells
The experiment in a line: Fluo-4 Ca2+ assay, UTP, HEK293 cells with inducible R269W ITPR1. Particulars: UTP 5 μM; compound 10 μM; tetracycline-induced; FIG. 6B-C. The experiment is classed as cell-based. On the procedure: HEK293 cells stably transfected with tetracycline-inducible expression of wild type or mutant (R269W or T267M) ITPR1, kindly provided by Prof. S. R. Wayne Chen (University of Calgary; ref. 14), were cultured in a mixture of Dulbecco's Modified Eagle Medium (DMEM, high glucose version) and Ham's F12 (1:1) and supplemented with 10% fetal bovine serum, 2 mM L-glutamine, 100 U/ml penicillin and 100 μg/ml streptomycin. Cells were selected with 0.5 mg/ml hygromycin B and induced with 1 μg/ml tetracycline.
as §1

T1 sequence (Q14573 whole entry): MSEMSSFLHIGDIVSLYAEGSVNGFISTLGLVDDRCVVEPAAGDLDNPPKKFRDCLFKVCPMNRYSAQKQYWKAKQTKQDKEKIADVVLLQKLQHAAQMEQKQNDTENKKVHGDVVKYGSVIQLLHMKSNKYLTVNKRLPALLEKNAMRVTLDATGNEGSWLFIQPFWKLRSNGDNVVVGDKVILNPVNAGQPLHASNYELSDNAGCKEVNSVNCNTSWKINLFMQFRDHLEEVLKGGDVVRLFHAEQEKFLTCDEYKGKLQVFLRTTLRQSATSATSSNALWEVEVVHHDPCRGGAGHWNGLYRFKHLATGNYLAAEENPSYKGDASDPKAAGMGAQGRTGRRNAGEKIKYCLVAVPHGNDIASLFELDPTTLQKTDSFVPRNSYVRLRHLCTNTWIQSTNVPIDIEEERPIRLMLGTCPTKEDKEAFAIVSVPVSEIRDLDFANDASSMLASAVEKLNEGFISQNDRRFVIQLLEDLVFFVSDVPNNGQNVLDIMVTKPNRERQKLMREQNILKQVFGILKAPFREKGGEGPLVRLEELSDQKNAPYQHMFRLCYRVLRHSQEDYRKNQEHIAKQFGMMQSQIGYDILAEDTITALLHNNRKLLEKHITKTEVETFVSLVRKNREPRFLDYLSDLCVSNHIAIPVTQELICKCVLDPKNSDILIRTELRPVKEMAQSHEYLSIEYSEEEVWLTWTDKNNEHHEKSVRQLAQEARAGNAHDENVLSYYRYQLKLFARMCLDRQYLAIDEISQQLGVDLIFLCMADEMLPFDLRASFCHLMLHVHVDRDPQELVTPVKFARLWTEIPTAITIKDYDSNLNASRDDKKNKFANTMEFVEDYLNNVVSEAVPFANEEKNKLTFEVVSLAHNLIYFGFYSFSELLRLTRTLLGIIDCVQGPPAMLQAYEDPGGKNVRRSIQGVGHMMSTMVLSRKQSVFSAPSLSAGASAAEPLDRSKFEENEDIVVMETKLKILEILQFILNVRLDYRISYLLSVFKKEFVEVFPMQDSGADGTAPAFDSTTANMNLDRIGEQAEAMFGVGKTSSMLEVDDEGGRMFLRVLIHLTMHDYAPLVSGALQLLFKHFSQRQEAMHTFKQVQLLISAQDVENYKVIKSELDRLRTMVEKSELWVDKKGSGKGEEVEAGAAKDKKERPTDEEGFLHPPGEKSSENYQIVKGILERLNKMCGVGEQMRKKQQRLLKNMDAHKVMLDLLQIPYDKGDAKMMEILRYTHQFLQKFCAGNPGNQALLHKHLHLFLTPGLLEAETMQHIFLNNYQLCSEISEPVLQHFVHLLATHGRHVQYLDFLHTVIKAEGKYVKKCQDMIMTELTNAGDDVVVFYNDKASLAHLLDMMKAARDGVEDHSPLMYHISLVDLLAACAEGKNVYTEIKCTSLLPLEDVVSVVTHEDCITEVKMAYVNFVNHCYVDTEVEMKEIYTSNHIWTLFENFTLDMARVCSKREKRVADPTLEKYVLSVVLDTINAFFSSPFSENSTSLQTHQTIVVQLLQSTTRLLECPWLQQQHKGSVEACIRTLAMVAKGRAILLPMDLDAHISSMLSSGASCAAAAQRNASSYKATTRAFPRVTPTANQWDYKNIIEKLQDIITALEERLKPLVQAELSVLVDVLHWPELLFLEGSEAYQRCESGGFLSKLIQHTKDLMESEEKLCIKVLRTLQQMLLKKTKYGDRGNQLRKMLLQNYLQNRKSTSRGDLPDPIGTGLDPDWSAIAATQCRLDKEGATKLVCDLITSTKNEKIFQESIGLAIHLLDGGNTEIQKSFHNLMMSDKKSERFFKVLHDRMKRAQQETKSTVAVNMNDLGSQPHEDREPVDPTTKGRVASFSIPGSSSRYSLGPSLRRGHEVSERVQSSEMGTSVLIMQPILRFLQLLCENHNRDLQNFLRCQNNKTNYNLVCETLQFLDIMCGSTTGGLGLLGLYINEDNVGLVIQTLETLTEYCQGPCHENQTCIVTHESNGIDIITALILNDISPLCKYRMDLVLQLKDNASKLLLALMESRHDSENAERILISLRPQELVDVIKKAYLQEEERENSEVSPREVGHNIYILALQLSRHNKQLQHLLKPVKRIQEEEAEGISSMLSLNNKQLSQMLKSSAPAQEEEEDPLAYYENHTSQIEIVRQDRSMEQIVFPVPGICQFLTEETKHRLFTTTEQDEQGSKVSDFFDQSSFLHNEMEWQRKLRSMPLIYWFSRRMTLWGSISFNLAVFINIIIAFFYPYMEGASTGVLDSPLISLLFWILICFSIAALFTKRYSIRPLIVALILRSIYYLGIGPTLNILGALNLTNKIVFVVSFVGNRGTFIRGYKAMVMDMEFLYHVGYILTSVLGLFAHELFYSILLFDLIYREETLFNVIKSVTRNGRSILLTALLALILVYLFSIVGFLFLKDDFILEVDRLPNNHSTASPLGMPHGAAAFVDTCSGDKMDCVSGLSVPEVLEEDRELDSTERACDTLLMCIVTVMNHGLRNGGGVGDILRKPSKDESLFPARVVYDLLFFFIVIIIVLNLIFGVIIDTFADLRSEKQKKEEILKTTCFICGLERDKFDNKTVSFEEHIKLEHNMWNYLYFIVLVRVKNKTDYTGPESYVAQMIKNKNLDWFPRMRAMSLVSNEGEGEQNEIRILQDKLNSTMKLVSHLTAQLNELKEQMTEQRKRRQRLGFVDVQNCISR

For `OCc1ccccc1CN(Cc1ccnc(N2CCCC2)n1)c1ccc(F)cc1` [ARN4550, [2-[[4-Fluoro-N-[(2-pyrrolidin-1-ylpyrimidin-4-yl)methyl]anilino]methyl]phenyl]methanol], the “direct Ca2+ mobilization in the absence of UTP (Fluo-4)” value (“direct Ca2+ mobilization” below) in experiment [1] is given as “No effect”. The “potentiation of UTP-dependent Ca2+ increase (Fluo-4)” value in experiment [1] (UTP 0.25 μM) is recorded as “able to potentiate”. The “potentiation of UTP-elicited Ca2+ increase, ITPR3-only cells” value in experiment [2] was “always effective”. Also, in experiment [3], the “potentiation of SLIGR-NH2 stimulus (Ca2+ mobilization), HEKR1 cells” value (from here on “potentiation of SLIGR-NH2 stimulus”) is “effective as potentiators”. Further, the “potentiation of Ca2+ mobilization elicited by UTP, R269W mutant” value (“potentiation … R269W mutant” for short) in experiment [4] is listed as “also effective although less than ARN11391”.

Regarding `CCc1cc(-c2cc(NCCCOc3ccccc3C)nc(N)n2)n(C)n1` [ARN7149, 6-(3-Ethyl-1-methyl-1H-pyrazol-5-yl)-N^4-(3-(o-tolyloxy)propyl)pyrimidine-2,4-diamine], the “direct Ca2+ mobilization” value in experiment [1] was “No effect”. The “potentiation of UTP-dependent Ca2+ increase (Fluo-4)” value in experiment [1] (UTP 0.25 μM) is on record as “able to potentiate”. In addition, the “potentiation of UTP-elicited Ca2+ increase, ITPR3-only cells” value in experiment [2] is given as “always effective”. In experiment [3], the “potentiation of SLIGR-NH2 stimulus” value was “significant inhibition”. Moreover, the “potentiation … R269W mutant” value in experiment [4] is “also effective although less than ARN11391”.

As to `CCn1nc2c(c1C(=O)Nc1ccccc1OCC1CCCCO1)CCCC2` (stereo not shown) [ARN11391, 2-Ethyl-N-[2-(tetrahydropyran-2-ylmethoxy)phenyl]-4,5,6,7-tetrahydroindazole-3-carboxamide], the “potentiation of the Ca2+ increase elicited by UTP, multiple concentrations” value in experiment [1] (UTP 0.25 μM, compounds 1-80 μM, vs vehicle (DMSO), FIG. 8) is “dose-dependent potentiation”. Further, in experiment [1], the “direct Ca2+ mobilization” value is listed as “No effect”. The “potentiation of UTP-dependent Ca2+ increase (Fluo-4)” value in experiment [1] (UTP 0.25 μM) is recorded as “able to potentiate”. In addition, in experiment [2], the “potentiation of UTP-elicited Ca2+ increase, ITPR3-only cells” value is listed as “only effective in cells with ITPR1”. In experiment [3], the “potentiation of SLIGR-NH2 stimulus” value is listed as “effective as potentiators”. For the same molecule, the “potentiation … R269W mutant” value in experiment [4] is reported as “marked potentiation”.

The values above are taken from US20260138970A1, “MODULATORS OF THE CALCIUM SIGNALING CASCADE” (FONDAZIONE TELETHON ETS, priority 2022, published 2026).
